The values below are quoted from earlier work in patent US9541834B2, “Ionic thermal acid generators for low temperature applications” (Rohm and Haas Electronic Materials LLC, priority 2012, dated 2017).

The conditions of the data set: pKa of conjugate acid (BH)+ of the base of the TAG, aqueous solution, about room temperature.
Take “3-Fluoropyridinium perfluorobutanesulfonate [3-Fluoropyridinium PFBuS]”: the “pKa (base)” value is recorded as 2.8.

As for `N.O=S(=O)(O)C(F)(F)C(F)(F)C(F)(F)C(F)(F)F` [Ammonium PFBuS, Ammonium perfluorobutanesulfonate], the “pKa (base)” value is recorded as 9.25.

As for “Pyridazinium perfluorobutanesulfonate [Pyridazinium PFBuS]”, the “pKa (base)” value is given as 3.1.
